Assay results as given in PubChem BioAssay (NCI).
Where “and” joins values, the source holds several entries; their conditions need not be identical. Equal values may be shown once.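 How tested: cells in 96-well plates exposed to compound for 48 hours at five concentrations. GI50: concentration for 50% inhibition of growth. TGI denotes the concentration required for complete inhibition of growth.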

Tests used:
Assay in all cases: DTP human tumour cell line panel, 48 h
[1] = test system: DMS 114 small cell lung
[2] = test system: KM20L2 colon
[3] = test system: M19-MEL melanoma
[4] = test system: SNB-78 CNS
[5] = test system: XF 498 CNS
[6] = test system: DMS 273 small cell lung
[7] = test system: DU-145 prostate
[8] = test system: MCF7 breast
[9] = test system: MDA-MB-435
[10] = test system: NCI/ADR-RES ovarian

SMILES	TGI [1]	TGI [2] [µM]	TGI [3]	TGI [4]	TGI [5]	TGI [6]	GI50 [1] [µM]	GI50 [6]	GI50 [2] [µM]	GI50 [3] [µM]	GI50 [4] [µM]	GI50 [5]	TGI [7]	TGI [8]	GI50 [9] [µM]	TGI [9] [µM]	TGI [10] [µM]
COc1cc2cnc3c4ccccc4ccc3c2cc1OC	> 100 µM	> 100	> 100 µM	> 100 µM	> 100 µM	–	–	–	–	–	–	–	–	–	–	–	–
CCN(CC)CC(=O)N1CCc2c([nH]c3ccccc23)C1c1cccnc1 (stereo not given)	> 100 µM	> 100	> 100 µM	> 100 µM	> 100 µM	> 100 µM	–	–	–	–	–	–	–	–	–	–	–
COc1cccc(/C=C2\CCC(C)(CN(C)C)C2=O)c1 (stereo not given)	> 100 µM	> 100	> 100 µM	> 100 µM	> 100 µM	> 100 µM	–	–	–	–	–	–	–	–	–	–	–
C[n+]1c2ccccc2cc2c(CNC(CCCN=C(N)N)C(=O)O)cccc21 (stereo not given)	1.16 µM and 3.36 µM	12.3	2.26 µM and 17 µM	7.93 µM and 35.5 µM	3.5 µM and 4.02 µM	8.77 µM and 1.53 µM	1.62	0.441 µM	0.346	4.23	5.8	2.46 µM	–	–	–	–	–
CC1(C)CC[C@H](C2=CC(=O)c3c(O)ccc(O)c3C2=O)O1	2.21 µM and 3.14 µM and 0.47 µM	–	–	–	4.6 µM and 3.89 µM and 1.34 µM	–	1.63	7.31 µM and 1.32 µM and 0.752 µM	–	–	–	2.3 µM and 2.36 µM and 0.563 µM	6.28 µM and 4.38 µM	0.739 µM and 0.337 µM	0.33	0.837	12
CC/C(=N\NS(=O)(=O)c1ccccc1)c1ccccc1	–	> 100	> 100 µM	> 100 µM	> 100 µM	> 100 µM	–	–	–	–	–	–	–	–	–	–	–
Cl[Si]1(Cl)Oc2ccccc2O[Si](Cl)(Cl)Oc2ccccc2O1	6.03 µM	> 100	25.3 µM	–	30.3 µM	31.3 µM	–	–	–	–	–	–	–	–	–	–	–
CC(=O)OC1COC(n2c(=S)n(-c3ccccc3)c(=O)c3cc(Br)ccc32)C(OC(C)=O)C1OC(C)=O (stereo not given)	> 100 µM	> 100	> 100 µM	> 100 µM	45.2 µM	> 100 µM	–	–	–	–	–	–	–	–	–	–	–
CSc1c(C)c(C)nn1-c1ccccc1	> 100 µM	> 100	–	> 100 µM	> 100 µM	> 100 µM	–	–	–	–	–	–	–	–	–	–	–
Cc1ccc2nc3c(Cl)c(C)c(=O)cc-3sc2c1	> 1 µM and 76 µM	> 100	> 100 µM	> 100 µM	–	> 100 µM	25.4	–	> 100	46.4	54	–	–	–	–	–	–
O=C/C(=C(/Cl)c1ccc(O)cc1)c1ccccc1	31.2 µM	> 59.8	42.1 µM	> 82.9 µM	> 45.4 µM	48 µM	–	–	–	–	–	–	> 100 µM	–	–	–	–
C=CCC1[C@@H](C(C)(C)C(C(C)=O)C(=O)C(=O)OC)OC(C(C)(C)C)N1C(=O)OC (stereo not given in full)	–	> 100	> 100 µM	> 100 µM	> 100 µM	–	–	–	–	–	–	–	–	–	–	–	–
CC(CC(=O)Nc1ccc(NC(=O)CC(C)N=NC(N)=S)cc1)N=NC(N)=S (stereo not given)	> 100 µM	> 100	> 100 µM	> 100 µM	> 100 µM	> 100 µM	–	–	–	–	–	–	–	–	–	–	–
C#CCC(N)(CO)C(=O)O (stereo not given)	> 100 µM	–	> 100 µM	> 100 µM	> 100 µM	> 100 µM	–	–	–	–	–	–	–	–	–	–	–
CC(=O)[CH-]C(C)=O.[CH2-]C.[CH2-]C.[Tl+3]	> 100 µM	> 100	–	–	> 100 µM	> 100 µM	> 100	> 100 µM	> 100	–	–	> 100 µM	–	–	–	–	–
Cc1ccc(S(=O)(=O)N/N=C(\c2nc3ccc([N+](=O)[O-])cc3[nH]c2=O)C(O)c2ccccc2Cl)cc1 (stereo not given)	> 100 µM	> 100	> 100 µM	> 100 µM	–	> 100 µM	–	–	–	–	–	–	–	–	–	–	–
O=C1C=C(O)c2[nH]c(=O)ccc2C1=O	–	> 100	> 100 µM	> 100 µM	> 100 µM	> 100 µM	–	–	–	–	–	–	–	–	–	–	–
Cc1cc(N(CCC#N)CCC#N)ccc1/C=C1N=C(/C=C/c2ccccc2)OC(=O)N\1	> 100 µM	> 100	> 100 µM	> 100 µM	> 100 µM	> 100 µM	–	–	–	–	–	–	–	–	–	–	–
COc1ccc(Nc2nc3ccccc3nc2-c2cccs2)cc1	> 100 µM	> 100	–	> 100 µM	> 100 µM	> 100 µM	–	–	–	–	–	–	–	–	–	–	–
Cc1ccccc1Nc1nc2c(s1)C(=O)c1ccccc1C2=O	4.69 µM	> 65.4	3.79 µM	> 64.8 µM	29.3 µM	21.4 µM	–	–	–	–	–	–	20 µM	4.36 µM	–	–	–
CCOC(=O)/C(=C/c1cccc(OC)c1)N(CC)CC	> 100 µM	> 100	> 100 µM	> 100 µM	> 100 µM	> 100 µM	–	–	–	–	–	–	–	–	–	–	–
O=C(NC12CC3CC(CC(C3)C1)C2)C(=O)c1c[nH]c2ccc(Cl)cc12	> 100 µM	> 100	> 100 µM	> 100 µM	43 µM	> 100 µM	–	–	–	–	–	–	–	–	–	–	–
NC(N)=NS(=O)(=O)c1ccc(NC(=O)c2cccc3c(Nc4ccc(S(N)(=O)=O)cc4)c4ccccc4nc23)cc1	> 100 µM	> 100	> 100 µM	> 100 µM	> 100 µM	> 100 µM	–	–	–	–	–	–	–	–	–	–	–
O=c1c(Cl)c(Cl)cnn1CCc1ccncc1	29 µM	36.2	30.8 µM	49.8 µM	29.6 µM	33.6 µM	–	–	–	–	–	–	–	–	–	–	–
CNC(SC)=C1C(=O)OC(C)(C)OC1=O	> 100 µM	> 100	> 100 µM	> 100 µM	> 100 µM	> 100 µM	–	–	–	–	–	–	–	–	–	–	–
CCCCCCCCCCCCCC(=O)OCC1OC(=O)CC1O (stereo not given)	> 100 µM	> 100	–	> 100 µM	> 100 µM	> 100 µM	–	–	–	–	–	–	–	–	–	–	–
COC(=O)/C(C#N)=C1\CCC(C(=O)OC)N1C (stereo not given)	> 100 µM	> 100	> 100 µM	> 100 µM	> 100 µM	> 100 µM	–	–	–	–	–	–	–	–	–	–	–
CC(=O)OCC1OC(n2cc([N+](=O)[O-])c(=O)[nH]c2=O)C(OC(C)=O)C(OC(C)=O)C1OC(C)=O (stereo not given)	> 100 µM	> 100	> 100 µM	–	> 100 µM	> 100 µM	–	–	–	–	–	–	–	–	–	–	–
COc1c(Br)cc(Br)c(OC)c1-c1[nH]c(Br)c(Br)c1Br	19.4 µM	22.4	23 µM	28.8 µM	14.3 µM	25.1 µM	–	–	–	–	–	–	–	–	–	–	–
Cc1nnc(N/N=C(/C(=O)C(C#N)c2ccccc2)C(C#N)c2ccccc2)n1N (stereo not given)	13.4 µM	> 100	25.2 µM	> 90 µM	–	34.4 µM	–	–	–	–	–	–	–	–	–	–	–
